{"source": "paper PMC12748989", "about": "(Nature Communications, 2025)", "key": {"[1]": {"system": "PBMC", "conditions": "12.5 µM"}, "[2]": {"system": "MDA-MB-231 cells"}}, "data": [{"smiles": "CC[C@H](C)[C@H](N)C(=O)N[C@@H](CC(N)=O)C(=O)N[C@@H](CC(C)C)C(=O)N[C@@H](CCCCN)C(=O)N[C@@H](C)C(=O)N[C@@H](CC(C)C)C(=O)N[C@@H](C)C(=O)N[C@@H](C)C(=O)N[C@@H](CC(C)C)C(=O)N[C@@H](Cc1c[nH]c2ccccc12)C(=O)N[C@@H](CCCCN)C(=O)N[C@@H](CCCCN)C(=O)N[C@H](C(=O)N[C@@H](CC(C)C)C(N)=O)[C@@H](C)CC", "note": "[W10]", "values": [{"measurement": "Average (percentage cell inhibition), Mastoparan PBMC", "setting": "[1]", "result": 15.3863, "unit": "%"}, {"measurement": "Average (percentage cell inhibition), Dmastoparan MDA-MB231 12.5uM", "setting": "[2]", "result": 49.5675, "unit": "%"}]}, {"smiles": "CC[C@H](C)[C@H](N)C(=O)N[C@@H](CC(N)=O)C(=O)N[C@@H](CC(C)C)C(=O)N[C@@H](CCCCN)C(=O)N[C@@H](C)C(=O)N[C@@H](CC(C)C)C(=O)N[C@@H](C)C(=O)N[C@@H](C)C(=O)N[C@@H](CC(C)C)C(=O)N[C@@H](CCC(N)=O)C(=O)N[C@@H](CCCCN)C(=O)N[C@@H](CCCCN)C(=O)N[C@H](C(=O)N[C@@H](CC(C)C)C(N)=O)[C@@H](C)CC", "note": "[Q10]", "values": [{"measurement": "Average (percentage cell inhibition), Mastoparan PBMC", "setting": "[1]", "result": 12.3938, "unit": "%"}, {"measurement": "Average (percentage cell inhibition), Dmastoparan MDA-MB231 12.5uM", "setting": "[2]", "result": 6.186, "unit": "%"}]}, {"smiles": "CC[C@H](C)[C@H](N)C(=O)N[C@@H](CC(N)=O)C(=O)N[C@@H](CC(C)C)C(=O)N[C@@H](CCCCN)C(=O)N[C@@H](C)C(=O)N[C@@H](CC(C)C)C(=O)N[C@@H](C)C(=O)N[C@@H](C)C(=O)N[C@@H](CO)C(=O)N[C@@H](C)C(=O)N[C@@H](CCCCN)C(=O)N[C@@H](CCCCN)C(=O)N[C@H](C(=O)N[C@@H](CC(C)C)C(N)=O)[C@@H](C)CC", "note": "[S9]", "values": [{"measurement": "Average (percentage cell inhibition), Mastoparan PBMC", "setting": "[1]", "result": -4.8979, "unit": "%"}, {"measurement": "Average (percentage cell inhibition), Dmastoparan MDA-MB231 12.5uM", "setting": "[2]", "result": 27.2293, "unit": "%"}]}, {"smiles": "CC[C@H](C)[C@H](N)C(=O)N[C@@H](CC(N)=O)C(=O)N[C@@H](CC(C)C)C(=O)N[C@@H](CCCCN)C(=O)N[C@@H](C)C(=O)N[C@@H](CC(C)C)C(=O)N[C@@H](C)C(=O)N[C@@H](C)C(=O)N[C@@H](CC(C)C)C(=O)N[C@@H](C)C(=O)N[C@@H](CCCCN)C(=O)N[C@@H](CCC(=O)O)C(=O)N[C@H](C(=O)N[C@@H](CC(C)C)C(N)=O)[C@@H](C)CC", "note": "[E12]", "values": [{"measurement": "Average (percentage cell inhibition), Mastoparan PBMC", "setting": "[1]", "result": 4.97, "unit": "%"}, {"measurement": "Average (percentage cell inhibition), Dmastoparan MDA-MB231 12.5uM", "setting": "[2]", "result": 21.4723, "unit": "%"}]}, {"smiles": "CC[C@H](C)[C@H](NC(=O)[C@H](CCCCN)NC(=O)[C@H](CCCCN)NC(=O)[C@H](C)NC(=O)[C@H](CC(C)C)NC(=O)[C@H](C)NC(=O)[C@H](C)NC(=O)[C@H](CC(C)C)NC(=O)[C@H](C)NC(=O)[C@H](CCCCN)NC(=O)[C@H](CC(C)C)NC(=O)[C@H](CC(N)=O)NC(=O)[C@@H](N)CCC(=O)O)C(=O)N[C@@H](CC(C)C)C(N)=O", "note": "[E1]", "values": [{"measurement": "Average (percentage cell inhibition), Mastoparan PBMC", "setting": "[1]", "result": 8.369, "unit": "%"}, {"measurement": "Average (percentage cell inhibition), Dmastoparan MDA-MB231 12.5uM", "setting": "[2]", "result": 25.5598, "unit": "%"}]}, {"smiles": "CC[C@H](C)[C@H](N)C(=O)N[C@@H](CC(N)=O)C(=O)N[C@@H](CC(C)C)C(=O)N[C@@H](CCCCN)C(=O)N[C@@H](C)C(=O)N[C@@H](CC(C)C)C(=O)N[C@@H](C)C(=O)N[C@@H](C)C(=O)N[C@H](C(=O)N[C@@H](C)C(=O)N[C@@H](CCCCN)C(=O)N[C@@H](CCCCN)C(=O)N[C@H](C(=O)N[C@@H](CC(C)C)C(N)=O)[C@@H](C)CC)C(C)C", "note": "[V9]", "values": [{"measurement": "Average (percentage cell inhibition), Mastoparan PBMC", "setting": "[1]", "result": 10.0305, "unit": "%"}, {"measurement": "Average (percentage cell inhibition), Dmastoparan MDA-MB231 12.5uM", "setting": "[2]", "result": 43.1794, "unit": "%"}]}, {"smiles": "CC[C@H](C)[C@H](N)C(=O)N[C@@H](CC(N)=O)C(=O)N[C@@H](CC(C)C)C(=O)N[C@@H](CCCCN)C(=O)N[C@@H](C)C(=O)N[C@H](C(=O)N[C@@H](C)C(=O)N[C@@H](C)C(=O)N[C@@H](CC(C)C)C(=O)N[C@@H](C)C(=O)N[C@@H](CCCCN)C(=O)N[C@@H](CCCCN)C(=O)N[C@H](C(=O)N[C@@H](CC(C)C)C(N)=O)[C@@H](C)CC)[C@@H](C)O", "note": "[T6]", "values": [{"measurement": "Average (percentage cell inhibition), Mastoparan PBMC", "setting": "[1]", "result": 0.8912, "unit": "%"}, {"measurement": "Average (percentage cell inhibition), Dmastoparan MDA-MB231 12.5uM", "setting": "[2]", "result": 9.306, "unit": "%"}]}, {"smiles": "CC[C@H](C)[C@H](N)C(=O)N[C@@H](CC(N)=O)C(=O)N[C@@H](CC(C)C)C(=O)N[C@@H](CCCCN)C(=O)N[C@@H](C)C(=O)N[C@@H](CC(C)C)C(=O)N[C@@H](C)C(=O)N[C@@H](C)C(=O)N[C@H](C(=O)N[C@@H](C)C(=O)N[C@@H](CCCCN)C(=O)N[C@@H](CCCCN)C(=O)N[C@H](C(=O)N[C@@H](CC(C)C)C(N)=O)[C@@H](C)CC)[C@@H](C)O", "note": "[T9]", "values": [{"measurement": "Average (percentage cell inhibition), Mastoparan PBMC", "setting": "[1]", "result": 2.309, "unit": "%"}, {"measurement": "Average (percentage cell inhibition), Dmastoparan MDA-MB231 12.5uM", "setting": "[2]", "result": 18.2148, "unit": "%"}]}, {"smiles": "CC[C@H](C)[C@H](N)C(=O)N[C@@H](CC(N)=O)C(=O)N[C@@H](CC(C)C)C(=O)N[C@@H](CCCCN)C(=O)N[C@@H](CC(N)=O)C(=O)N[C@@H](CC(C)C)C(=O)N[C@@H](C)C(=O)N[C@@H](C)C(=O)N[C@@H](CC(C)C)C(=O)N[C@@H](C)C(=O)N[C@@H](CCCCN)C(=O)N[C@@H](CCCCN)C(=O)N[C@H](C(=O)N[C@@H](CC(C)C)C(N)=O)[C@@H](C)CC", "note": "[N5]", "values": [{"measurement": "Average (percentage cell inhibition), Mastoparan PBMC", "setting": "[1]", "result": 6.591, "unit": "%"}, {"measurement": "Average (percentage cell inhibition), Dmastoparan MDA-MB231 12.5uM", "setting": "[2]", "result": 45.6062, "unit": "%"}]}, {"smiles": "CC[C@H](C)[C@H](N)C(=O)N[C@@H](CC(N)=O)C(=O)N[C@@H](CC(C)C)C(=O)N[C@@H](CCC(N)=O)C(=O)N[C@@H](C)C(=O)N[C@@H](CC(C)C)C(=O)N[C@@H](C)C(=O)N[C@@H](C)C(=O)N[C@@H](CC(C)C)C(=O)N[C@@H](C)C(=O)N[C@@H](CCCCN)C(=O)N[C@@H](CCCCN)C(=O)N[C@H](C(=O)N[C@@H](CC(C)C)C(N)=O)[C@@H](C)CC", "note": "[Q4]", "values": [{"measurement": "Average (percentage cell inhibition), Mastoparan PBMC", "setting": "[1]", "result": -3.9555, "unit": "%"}, {"measurement": "Average (percentage cell inhibition), Dmastoparan MDA-MB231 12.5uM", "setting": "[2]", "result": 34.9808, "unit": "%"}]}, {"smiles": "CC[C@H](C)[C@H](N)C(=O)N[C@@H](CC(N)=O)C(=O)N[C@@H](CC(C)C)C(=O)N[C@@H](CCCCN)C(=O)N[C@@H](C)C(=O)N[C@@H](CC(C)C)C(=O)N[C@@H](C)C(=O)N[C@@H](C)C(=O)N[C@@H](CC(C)C)C(=O)N[C@@H](C)C(=O)N[C@@H](CCCCN)C(=O)N[C@@H](CCCCN)C(=O)N[C@H](C(=O)N[C@@H](CC(N)=O)C(N)=O)[C@@H](C)CC", "note": "[N14]", "values": [{"measurement": "Average (percentage cell inhibition), Mastoparan PBMC", "setting": "[1]", "result": 9.15, "unit": "%"}, {"measurement": "Average (percentage cell inhibition), Dmastoparan MDA-MB231 12.5uM", "setting": "[2]", "result": -1.851, "unit": "%"}]}, {"smiles": "CC[C@H](C)[C@H](N)C(=O)N[C@@H](CC(N)=O)C(=O)NCC(=O)N[C@@H](CCCCN)C(=O)N[C@@H](C)C(=O)N[C@@H](CC(C)C)C(=O)N[C@@H](C)C(=O)N[C@@H](C)C(=O)N[C@@H](CC(C)C)C(=O)N[C@@H](C)C(=O)N[C@@H](CCCCN)C(=O)N[C@@H](CCCCN)C(=O)N[C@H](C(=O)N[C@@H](CC(C)C)C(N)=O)[C@@H](C)CC", "note": "[G3]", "values": [{"measurement": "Average (percentage cell inhibition), Mastoparan PBMC", "setting": "[1]", "result": 8.745, "unit": "%"}, {"measurement": "Average (percentage cell inhibition), Dmastoparan MDA-MB231 12.5uM", "setting": "[2]", "result": 40.6724, "unit": "%"}]}, {"smiles": "CC[C@H](C)[C@H](N)C(=O)N[C@@H](CC(N)=O)C(=O)N[C@@H](CC(C)C)C(=O)N[C@@H](CCCCN)C(=O)N[C@@H](C)C(=O)N[C@@H](CC(C)C)C(=O)N[C@@H](C)C(=O)N[C@@H](C)C(=O)N[C@@H](CC(C)C)C(=O)N[C@@H](C)C(=O)N[C@@H](CCC(=O)O)C(=O)N[C@@H](CCCCN)C(=O)N[C@H](C(=O)N[C@@H](CC(C)C)C(N)=O)[C@@H](C)CC", "note": "[E11]", "values": [{"measurement": "Average (percentage cell inhibition), Mastoparan PBMC", "setting": "[1]", "result": 5.959, "unit": "%"}, {"measurement": "Average (percentage cell inhibition), Dmastoparan MDA-MB231 12.5uM", "setting": "[2]", "result": 19.6815, "unit": "%"}]}, {"smiles": "CC[C@H](C)[C@H](NC(=O)[C@H](CCCCN)NC(=O)[C@H](CCCCN)NC(=O)[C@H](C)NC(=O)[C@H](CC(C)C)NC(=O)[C@H](C)NC(=O)[C@H](C)NC(=O)[C@H](CC(C)C)NC(=O)[C@H](C)NC(=O)[C@H](CCCCN)NC(=O)[C@H](CC(C)C)NC(=O)[C@H](CC(N)=O)NC(=O)[C@@H](N)Cc1c[nH]cn1)C(=O)N[C@@H](CC(C)C)C(N)=O", "note": "[H1]", "values": [{"measurement": "Average (percentage cell inhibition), Mastoparan PBMC", "setting": "[1]", "result": 0.9359, "unit": "%"}, {"measurement": "Average (percentage cell inhibition), Dmastoparan MDA-MB231 12.5uM", "setting": "[2]", "result": 37.0221, "unit": "%"}]}]}
